pIC50: −log10 of the molar value.
Columns and labels:
active/cleaved caspase 9 = assay: Cell-based caspase activation assay (western blot); design: species or system human
[1] = system: HCC-1806 (expressing wild type KRas); assay: Proliferation Assay (Cell Viability Assay); type: cell-based; settings: Homo sapiens, HCC1806; HCC-1806, Breast (TNBC), KRas WT
Protocol: (§1) Cell lines: these Human tumor-derived cell lines were purchased from American Type Culture Collection. Human tumor-derived pancreatic cancer cell line MiaPaca-2 (expressing KRAS G12C mutant) and Panc-1 (expressing KRas G12D mutant), and Human non-small cell lung cancer (NSCLC) cell line A549 (expressing KRas G12S mutant), and Human melanoma cell line A375 (wild type Kras) were grown in complete DMEM-High Glucose medium. Human tumor-derived pancreatic cancer cell lines SU86.86 (expressing KRas G12D mutant), BxPC3 (expressing wild type K-Ras), and Human non-small cell lung cancer (NSCLC) cell lines NCI-H441 (expressing KRas G12S mutant), NCI-H1975 (expressing wild type KRas), NCI-H358 (expressing KRas G12C mutant), NCI-H1299 (expressing NRas Q61H mutant), and Human colon cancer cell line SW-620 (expressing KRas G12V mutant), Human triple negative breast cancer cell line HCC-1806 (expressing wild type KRas), and Human tumor-derived multiple myeloma cell line MM.1R (expressing wild type KRAS), were grown in RPMI 1640 medium. Human tumor-derived breast cancer cell line BT-549 (expressing wild type KRAS) was grown in RPMI 1640 medium in the presence of 11.8U insulin. Human tumor-derived pancreatic cancer cell line HPAF-II (expressing KRas G12D mutant), Human triple negative breast cancer cell line BT-20 (expressing wild type KRas), and Human colon cancer cell line LS123 (expressing KRas G12S mutant), were grown in EMEM medium. Human tumor-derived pancreatic cancer cell line CF-PAC1 (expressing KRas G12V mutant) was frown in IMDM medium, and Human colon cancer cell line HT29 (expressing wild type KRas) was grown in McCoy's 5A medium. The colon cancer cell line GP2d (expressing KRas G12D mutant) was purchased from MilliporeSigma and grown in DMEM-High Glucose medium. All cell lines were supplemented with penicillin (100 U/mL), streptomycin (100 μg/mL), and 10% heat-inactivated FBS at 37° C. in a humidified incubator with 5% CO2.
(§2) Method: Cells were plated at 2000 to 5000 cells/well density in 96-wells plate and cultured overnight. Small molecules that were tested were added to the cells in the final concentration of 10 μM in the presence of 0.3% DMSO and 10% FBS, and incubated for 2-4 days at 37° C. in a humidified incubator with 5% CO2. For IC50 value determination, serial dilutions of compounds were added to cells under the same conditions.
(§3) Assay: At the end of the incubation period, cell viability was determined using the CellTiter 96® Aqueous One Solution Cell Proliferation Assay according to manufacturer specifications (Promega, Madison, WI). The percentage of small molecules inhibition of cellular proliferation was calculated from raw data.

[2] = system: BxPC3 (expressing wild type K-Ras); assay: Proliferation Assay (Cell Viability Assay); type: cell-based; settings: Homo sapiens, BXPC-3; BxPC3, pancreatic, KRas WT
Protocol: as §1, §2, §3

[3] = system: NCI-H1299 (expressing NRas Q61H mutant); assay: Proliferation Assay (Cell Viability Assay); type: cell-based; settings: Homo sapiens; NCI-H1299, NSCLC, Q61H (N-Ras)
Protocol: as §1, §2, §3

[4] = system: HPAF-II (expressing KRas G12D mutant); assay: Proliferation Assay (Cell Viability Assay); type: cell-based; settings: Homo sapiens, pancreatic
Protocol: as §1, §2, §3

[5] = system: SU86.86 (expressing KRas G12D mutant); assay: Proliferation Assay (Cell Viability Assay); type: cell-based; settings: Homo sapiens, SU.86.86, SU86.86, pancreatic
Protocol: as §1, §2, §3

[6] = system: NCI-H441 (expressing KRas G12S mutant); assay: Proliferation Assay (Cell Viability Assay); type: cell-based; settings: Homo sapiens, NCI-H441, NSCLC
Protocol: as §1, §2, §3

[7] = system: HT29 (expressing wild type KRas); assay: Proliferation Assay (Cell Viability Assay); type: cell-based; settings: Homo sapiens, HT-29; HT29, colon, KRas WT
Protocol: as §1, §2, §3

[8] = system: NCI-H1975 (expressing wild type KRas); assay: Proliferation Assay (Cell Viability Assay); type: cell-based; settings: Homo sapiens; NCI-H1975, NSCLC, KRas WT
Protocol: as §1, §2, §3

[9] = system: CF-PAC1 (expressing KRas G12V mutant); assay: Proliferation Assay (Cell Viability Assay); type: cell-based; settings: Homo sapiens, CFPAC-1, CF-PAC1, pancreatic
Protocol: as §1, §2, §3

[10] = system: LS123 (expressing KRas G12S mutant); assay: Proliferation Assay (Cell Viability Assay); type: cell-based; settings: Homo sapiens, LS-123, colon
Protocol: as §1, §2, §3

[11] = system: BT-20 (expressing wild type KRas); assay: Proliferation Assay (Cell Viability Assay); type: cell-based; settings: Homo sapiens; BT-20, Breast (TNBC), KRas WT
Protocol: as §1, §2, §3

[12] = system: Panc-1 (expressing KRas G12D mutant); assay: Proliferation Assay (Cell Viability Assay); type: cell-based; settings: Homo sapiens, Panc1, pancreatic
Protocol: (§4) Cell lines: Human tumor-derived cell lines were purchased from American Type Culture Collection. Human tumor-derived pancreatic cancer cell line MiaPaca-2 (expressing KRAS G12C mutant) and Panc-1 (expressing KRas G12D mutant), and Human non-small cell lung cancer (NSCLC) cell line A549 (expressing KRas G12S mutant) were grown in complete DMEM-High Glucose medium. Human colon cancer cell line SW-620 (expressing KRas G12V mutant) was grown in RPMI 1640 medium. All cell lines were supplemented with penicillin (100 U/mL), streptomycin (100 μg/mL), and 10% heat-inactivated FBS at 37° C. in a humidified incubator with 5% CO2.
as §2, with “to be” for “that were”, “FBS” for “FBS,”
as §3, §1, §2

[13] = system: A549 (expressing KRas G12S mutant); assay: Proliferation Assay (Cell Viability Assay); type: cell-based; settings: Homo sapiens, A549, NSCLC
Protocol: as §4
as §2, with “to be” for “that were”, “FBS” for “FBS,”
as §3, §1, §2

[14] = system: SW-620 (expressing KRas G12V mutant); assay: Proliferation Assay (Cell Viability Assay); type: cell-based; settings: Homo sapiens, SW-620, colon
Protocol: as §4
as §2, with “to be” for “that were”, “FBS” for “FBS,”
as §3, §1, §2

Row | Structure (SMILES) | Caspase 9 activation (active/cleaved caspase 9; HCC1806, after 48 hours) | Caspase 9 activation (active/cleaved caspase 9; NCI-H358, after 48 hours) | pIC50 [1] | pIC50 [2] | pIC50 [3] | pIC50 [4] | pIC50 [5] | pIC50 [6] | pIC50 [7] | pIC50 [8] | pIC50 [9] | pIC50 [10] | pIC50 [11] | pIC50 [12] | pIC50 [13] | pIC50 [14]
1 | Cc1c(-c2ccn(C)n2)cn2nc(-c3nccn3C)nc(Nc3cc4n(n3)CCO4)c12 [Compound 124, N-(5-Methyl-2-(1-methyl-1H-imidazol-2-yl)-6-(1-methyl-1H-pyrazol-3-yl)pyrrolo[2,1-f][1,2,4]triazin-4-yl)-2,3-dihydropyrazolo[5,1-b]oxazol-6-amine] | yes | yes |  |  |  |  |  |  |  |  |  |  |  |  |  | 
2 | COc1cc(Nc2nc(-c3nccn3C)nn3cc(-c4ccn(C(C)C)n4)c(C)c23)ncn1 [Compound 6, 6-(1-Isopropyl-1H-pyrazol-3-yl)-N-(6-methoxypyrimidin-4-yl)-5-methyl-2-(1-methyl-1H-imidazol-2-yl)pyrrolo[2,1-f][1,2,4]triazin-4-amine] |  |  | 6.00 to 6.29 | > 6.82 | > 6.82 | > 6.82 | 6.30 to 6.82 | 6.00 to 6.29 | > 6.82 | 6.00 to 6.29 | > 6.82 | > 6.82 | > 6.82 | > 6.82 | 6.00 to 6.29 | 6.30 to 6.82

Source: patent US12459951B2, “Compounds that interact with RAS superfamily proteins for treatment of cancers, inflammatory diseases, rasopathies, and fibrotic disease” (SHY Therapeutics, LLC, priority 2022, dated 2025)
